As usually defined, the Kd is the free concentration of one partner at which half of the binding sites on the other are occupied at equilibrium, for simple one-to-one binding. The low end stands for a tighter complex, the high end for a looser complex. What is called stoichiometry N is a count of units in the complex or per binding partner.

The record followed here is PMC12276312 (Nature Communications, 2025).

The target in data set [1] is T1, MxaF/MxaJ complex (Methylorubrum extorquens, UniProt P16027).
T1 sequence (P16027 28-626): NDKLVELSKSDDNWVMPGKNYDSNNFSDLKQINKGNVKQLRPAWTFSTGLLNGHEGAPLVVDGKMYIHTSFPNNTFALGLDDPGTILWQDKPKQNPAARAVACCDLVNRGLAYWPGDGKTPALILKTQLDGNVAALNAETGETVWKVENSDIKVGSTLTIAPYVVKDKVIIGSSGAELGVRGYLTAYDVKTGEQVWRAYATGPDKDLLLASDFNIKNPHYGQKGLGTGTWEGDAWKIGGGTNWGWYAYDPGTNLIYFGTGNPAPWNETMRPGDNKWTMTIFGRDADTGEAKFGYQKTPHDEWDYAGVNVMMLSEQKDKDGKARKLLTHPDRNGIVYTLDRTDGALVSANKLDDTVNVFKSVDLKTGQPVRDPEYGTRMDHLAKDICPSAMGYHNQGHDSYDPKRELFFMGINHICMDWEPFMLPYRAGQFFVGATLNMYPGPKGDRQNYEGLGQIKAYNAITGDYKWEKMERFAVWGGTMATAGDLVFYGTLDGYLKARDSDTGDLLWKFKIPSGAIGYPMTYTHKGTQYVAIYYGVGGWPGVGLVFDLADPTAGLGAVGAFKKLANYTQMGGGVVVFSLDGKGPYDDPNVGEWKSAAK
T1 sequence (P16028 26-300 partner): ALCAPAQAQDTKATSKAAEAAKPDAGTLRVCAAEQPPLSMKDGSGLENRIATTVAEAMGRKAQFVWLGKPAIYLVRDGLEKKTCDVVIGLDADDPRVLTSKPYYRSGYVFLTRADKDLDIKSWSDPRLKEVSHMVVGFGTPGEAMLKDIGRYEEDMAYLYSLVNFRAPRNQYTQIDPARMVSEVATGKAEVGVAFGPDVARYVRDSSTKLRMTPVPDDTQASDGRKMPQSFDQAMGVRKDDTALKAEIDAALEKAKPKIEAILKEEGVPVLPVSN
Description: isothermal titration calorimetry. Format: binding. In general terms: ITC needs no label: the signal is the heat of the interaction.

Data set [2] deals with the molecule itself. The data set can be described thus: cryo-EM structure.

For the molecule `O=C(O)c1cc(C(=O)O)c2c(n1)C(=O)C(=O)c1cc(C(=O)O)[nH]c1-2` [PQQ], the Kd in data set [1] is about 77 nM.

B1: MxaF, untagged, co-expressed with MxaJ-His6 for cryo-EM (enzyme, Methylobacterium extorquens AM1, UniProt P16027 28-626, looked up)
chain: T1 sequence (P16027 28-626)
In the case of B1, the “stoichiometry N” value in data set [2] was 2.
